These results are taken from ChEMBL document CHEMBL2074080, “Enhanced drug-induced apoptosis associated with P-glycoprotein overexpression is specific to antimicrotubule agents” (Pharm Res, 2003).

The target of the data set is ATP-dependent translocase ABCB1 (Homo sapiens, UniProt P08183). Nature of the data set: TP_TRANSPORTER: drug resistance in MDR1-expressing MCF7 cells. It is filed as functional, cell-based.
Sequence of ATP-dependent translocase ABCB1 (P08183 whole entry): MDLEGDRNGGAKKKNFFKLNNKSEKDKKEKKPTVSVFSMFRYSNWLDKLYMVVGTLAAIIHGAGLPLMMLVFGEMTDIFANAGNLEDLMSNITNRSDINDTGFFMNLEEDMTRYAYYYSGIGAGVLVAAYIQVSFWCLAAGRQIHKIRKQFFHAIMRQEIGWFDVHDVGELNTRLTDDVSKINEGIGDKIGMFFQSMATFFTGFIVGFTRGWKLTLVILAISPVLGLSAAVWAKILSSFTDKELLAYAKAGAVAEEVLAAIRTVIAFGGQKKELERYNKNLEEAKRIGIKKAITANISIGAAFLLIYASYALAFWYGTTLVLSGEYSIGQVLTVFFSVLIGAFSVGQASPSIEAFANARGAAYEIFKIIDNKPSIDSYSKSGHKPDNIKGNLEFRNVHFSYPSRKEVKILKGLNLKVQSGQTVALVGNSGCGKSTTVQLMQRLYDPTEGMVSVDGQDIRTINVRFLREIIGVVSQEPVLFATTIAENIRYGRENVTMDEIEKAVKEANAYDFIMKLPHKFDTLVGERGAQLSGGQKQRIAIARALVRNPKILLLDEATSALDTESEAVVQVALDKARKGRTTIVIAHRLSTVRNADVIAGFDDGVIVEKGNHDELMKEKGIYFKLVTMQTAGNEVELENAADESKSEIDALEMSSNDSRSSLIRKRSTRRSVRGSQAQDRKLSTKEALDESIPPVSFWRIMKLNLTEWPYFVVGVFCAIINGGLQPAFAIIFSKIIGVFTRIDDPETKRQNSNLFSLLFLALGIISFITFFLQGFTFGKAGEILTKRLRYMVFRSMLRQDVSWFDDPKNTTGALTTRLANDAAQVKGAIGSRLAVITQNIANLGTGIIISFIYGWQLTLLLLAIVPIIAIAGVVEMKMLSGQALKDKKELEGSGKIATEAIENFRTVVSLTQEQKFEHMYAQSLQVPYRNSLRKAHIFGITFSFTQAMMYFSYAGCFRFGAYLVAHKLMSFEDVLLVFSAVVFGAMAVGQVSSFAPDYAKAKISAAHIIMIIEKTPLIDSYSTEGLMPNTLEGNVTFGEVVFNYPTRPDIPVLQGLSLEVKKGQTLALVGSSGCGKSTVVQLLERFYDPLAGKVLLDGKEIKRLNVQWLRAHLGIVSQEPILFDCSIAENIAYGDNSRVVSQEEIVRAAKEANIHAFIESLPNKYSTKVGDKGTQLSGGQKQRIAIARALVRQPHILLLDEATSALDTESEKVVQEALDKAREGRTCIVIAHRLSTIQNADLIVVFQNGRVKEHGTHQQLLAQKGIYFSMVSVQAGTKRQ

On to `CC[C@@]1(O)C(=O)OCc2c1cc1n(c2=O)Cc2cc3ccccc3nc2-1` [CAMPTOTHECIN], for which the Activity entry was “is not a substrate [-]”. The value for `CC(=O)O[C@H]1C(=O)[C@@]2(C)[C@H]([C@H](OC(=O)c3ccccc3)[C@]3(O)C[C@H](OC(=O)[C@H](O)[C@@H](NC(=O)c4ccccc4)c4ccccc4)C(C)=C1C3(C)C)[C@]1(OC(C)=O)CO[C@@H]1C[C@@H]2O` [PACLITAXEL] was “substrate [+]”; that for `CC[C@]1(O)C[C@H]2CN(CCc3c([nH]c4ccccc34)[C@@](C(=O)OC)(c3cc4c(cc3OC)N(C=O)[C@H]3[C@@](O)(C(=O)OC)[C@H](OC(C)=O)[C@]5(CC)C=CCN6CC[C@]43[C@@H]65)C2)C1` [VINCRISTINE] was “substrate [+]”.

On to `O=c1[nH]c(=O)n([C@@H]2O[C@H](CO)[C@@H](O)[C@H]2O)cc1F` [5-FLUOROURIDINE], for which the Activity entry is “is not a substrate [-]”. The value for `COc1cccc2c1C(=O)c1c(O)c3c(c(O)c1C2=O)C[C@@](O)(C(=O)CO)C[C@@H]3O[C@H]1C[C@H](N)[C@H](O)[C@H](C)O1` [DOXORUBICIN] was “substrate [+]”; that for CISPLATIN was “is not a substrate [-]”.
